Assay results reported in patent EP4803080A1, “METHOD FOR TREATING LEUKEMIA” (Shenzhen TargetRx Co., Ltd., priority 2023, dated 2025).
pIC50: −log10 of the molar value. Read-outs that look alike come from different tables or passages of the source.

Columns and labels:
Ba/F3 BCR-ABL1 T315M = assay: Cell growth inhibition activity test, single agents and combinations (CellTiter-Glo, Chou-Talalay); type: cell-based, mouse; settings: Mus musculus, BaF3, 72 h, single agent; T315M; 72 hours; read-out: IC50
Procedure: (§1) A series of cell lines expressing BCR-ABL1 single mutations and compound mutations were constructed based on the Ba/F3 mouse pro-B cell line.
(§2) This assay utilized the CellTiter-Glo (CTG) kit provided by Promega, which is a homogeneous method for cell viability detection, measuring the viability of cultured cells by quantifying ATP. Cells were seeded in 96-well plates and treated with different concentrations of test substances. […] At the end of the treatment, CTG reagent (CellTiter-Glo kit) was added according to the manufacturer's instructions to detect cell viability values. Plates were read on a microplate reader (Biotek cytation 3.0). IC50 values were calculated using GraphPad Prism 7.0 software.

[1] = tested on: Ba/F3 BCR-ABL1 Y253H/T315I; assay: as above; type: cell-based, mouse; settings: BCR-ABL1 Y253H/T315I, read-out: IC50^I1
Procedure: as §1, §2

O=C(Nc1ccc(OC(F)(F)Cl)cc1)c1cnc(N2CC[C@@H](F)C2)c(-c2cnccn2)c1 [Compound A, (R)-N-(4-(chlorodifluoromethoxy)phenyl)-6-(3-fluoropyrrolidin-1-yl)-5-(pyrazin-2-yl)nicotinamide]
pIC50 (Ba/F3 BCR-ABL1 T315M): < 6.00 | pIC50 ([1]; IC50 of Compound A (I1) in Combination with olverembatinib (I2)): 7.19 | pIC50 ([1]; IC50 of Compound A (I1) in Combination with ponatinib (I2)): 6.78 | pIC50 ([1]; Mus musculus, BaF3, 72 h, Monotherapy (Table 12)): 4.91
